The subject of one assay is osteoclast precursors. Kind of assay: Osteoclast tartrate-resistant acid phosphatase assay. It counts as cell-based. The following applies: Osteoclast, 7-14 days, RANKL and M-CSF.
The target of assay [1] is c-FMS kinase in THP-1 cells (Homo sapiens (Human), UniProt P07333). Description: Phospho-FMS ELISA assay in THP-1 cells. Format: cell-based.
The target of a further assay is KDR kinase (Homo sapiens (Human), UniProt P35968). Kind of assay: KDR kinase inhibition (Table 4). Format: biochemical.
Sequence of KDR kinase (P35968 20-1356): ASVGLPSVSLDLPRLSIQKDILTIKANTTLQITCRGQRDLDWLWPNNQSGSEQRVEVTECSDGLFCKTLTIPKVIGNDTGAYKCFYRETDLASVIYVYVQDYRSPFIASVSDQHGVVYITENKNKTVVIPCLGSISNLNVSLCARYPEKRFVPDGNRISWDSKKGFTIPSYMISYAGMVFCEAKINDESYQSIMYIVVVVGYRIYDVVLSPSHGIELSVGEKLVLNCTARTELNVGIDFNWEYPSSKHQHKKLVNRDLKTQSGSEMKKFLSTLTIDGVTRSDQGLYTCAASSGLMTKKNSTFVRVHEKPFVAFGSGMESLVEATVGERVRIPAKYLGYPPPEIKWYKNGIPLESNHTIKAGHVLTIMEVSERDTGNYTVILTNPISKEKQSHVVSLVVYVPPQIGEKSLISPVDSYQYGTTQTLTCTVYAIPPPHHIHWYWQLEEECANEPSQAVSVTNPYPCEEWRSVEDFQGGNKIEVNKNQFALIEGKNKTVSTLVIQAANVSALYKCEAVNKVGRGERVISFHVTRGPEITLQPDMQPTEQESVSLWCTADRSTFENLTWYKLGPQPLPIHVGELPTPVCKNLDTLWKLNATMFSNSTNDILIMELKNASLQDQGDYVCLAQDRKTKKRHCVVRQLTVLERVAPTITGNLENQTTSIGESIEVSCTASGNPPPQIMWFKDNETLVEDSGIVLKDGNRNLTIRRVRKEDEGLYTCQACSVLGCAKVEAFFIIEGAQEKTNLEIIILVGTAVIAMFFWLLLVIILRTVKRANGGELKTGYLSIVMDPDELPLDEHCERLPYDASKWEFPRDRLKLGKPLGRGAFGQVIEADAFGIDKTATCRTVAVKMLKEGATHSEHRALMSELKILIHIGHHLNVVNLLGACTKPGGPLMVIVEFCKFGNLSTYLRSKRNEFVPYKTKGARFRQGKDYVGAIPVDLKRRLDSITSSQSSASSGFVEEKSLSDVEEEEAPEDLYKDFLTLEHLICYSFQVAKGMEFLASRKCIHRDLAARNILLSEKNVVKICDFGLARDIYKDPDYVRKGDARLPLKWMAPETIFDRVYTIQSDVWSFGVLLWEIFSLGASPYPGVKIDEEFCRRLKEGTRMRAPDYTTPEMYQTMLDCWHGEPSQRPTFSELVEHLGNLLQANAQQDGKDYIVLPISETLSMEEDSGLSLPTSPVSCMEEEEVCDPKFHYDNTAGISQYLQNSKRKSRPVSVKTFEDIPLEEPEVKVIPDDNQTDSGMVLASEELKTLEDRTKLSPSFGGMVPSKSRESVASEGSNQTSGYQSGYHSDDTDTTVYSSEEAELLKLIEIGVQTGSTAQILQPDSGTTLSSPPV
A further assay concerns the target cMET kinase (Homo sapiens (Human), UniProt P08581). Kind of assay: cMET kinase inhibition (Table 4). It counts as biochemical.
The next assay deals with c-FMS. Kind of assay: cFOS mRNA production in a c-FMS mouse spleen pharmacodynamic model. Format: in vivo. The following applies: out to 8 h post 30 mg/kg dose, single oral dose. The procedure:
Analysis of cFOS mRNA Production in a c-FMS Mouse Spleen Pharmacodynamic Model
To examine the in vivo modulation of FMS activity by compounds of formula I, spleen samples from female DBA/1 mice were collected and analyzed for M-CSF stimulated production of cFOS mRNA. Briefly, six to seven week old female Taconic DBA/1BO J Bom Tac mice were treated with a single oral dose (by gavage) of either vehicle or compound. Plasma and spleen samples were collected from four mice at each timepoint 2, 4, 6, 8, 12, 18, and 24 hours after dosing. Fifteen minutes prior to euthanasia, all mice were injected IV with 1 μg (100 μL fixed volume) of M-CSF. M-CSF, Recombinant Mouse Macrophage Colony Stimulating Factor (36.4 kDa homodimer, ≧98% purity) was obtained from Gibco. All procedures carried out in this experiment were conducted in compliance with all the laws, regulations and guidelines of the National Institutes of Health (NIH). cFOS mRNA levels in spleen extracts were determined using a quantitative reverse transcriptase PCR kit from Life Technologies. Plasma levels of FMS inhibitors were determined by mass spectrometer analysis. The degree of FMS inhibition was correlative to the amount of decrease observed in cFOS mRNA levels in the spleen samples of treated animals compared to vehicle.

For the next assay, the system named is PC-3 M-luc cells. Kind of assay: PC-3 peritibial implant model of cancer bone metastasis. Format: in vivo, mouse. The settings on record: oral dose of 30 mg/kg twice daily; lesion score of 4 in vehicle-treated animals; scale 0-4. The text has this:
PC-3 Peritibial Implant Model of Cancer Bone Metastasis
To evaluate in vivo anti-cancer activity of compounds of formula I, the PC-3 M-luc peritibial injection model of bone invasiveness model was employed. Briefly, PC-3 M-luc cells were obtained from Xenogen Corporation (Caliper Life Sciences) and expanded using MEM media modified with L-Glutamine (Cell Gro® #10-045-CV) supplemented with 10% fetal bovine serum, 1% penicillin-streptomycin-glutamine, 1% non-essential amino acids, and 1% MEM vitamins in 5% CO2 atmosphere at 37° C. Six to 7 week old male nude mice (Crl:NU-Foxn1nu) were obtained from Charles River Laboratories. Test mice were implanted peritibially on Day 0 with 1×10^6 cells/mouse (0.1 ml) using an insulin syringe with a fixed 28-gauge needle. The needle was inserted at the ankle between the tibia and fibula until the bevel of the needle reached approximately half way between the knee and ankle. Treatments began on Day 0. Animals were dosed by oral gavage twice daily for the study duration. […]
Isosurface volume renderings were used to delineate lesions in the hind limbs. […] Lesions in the right hind limb were scored with values of 0, 1, 2, 3, or 4 based on a qualitative assessment of lesion size as defined by: • 0: Normal Bone • 1: Minimal lesions. […]

[2] abbreviates: 4 h compound, M-CSF stimulation 5 min, read-out: pFMS inhibition in THP-1 cells.

Like-named read-outs stand apart in the source and are kept apart here.

Sequence of cMET kinase (P08581 25-1390): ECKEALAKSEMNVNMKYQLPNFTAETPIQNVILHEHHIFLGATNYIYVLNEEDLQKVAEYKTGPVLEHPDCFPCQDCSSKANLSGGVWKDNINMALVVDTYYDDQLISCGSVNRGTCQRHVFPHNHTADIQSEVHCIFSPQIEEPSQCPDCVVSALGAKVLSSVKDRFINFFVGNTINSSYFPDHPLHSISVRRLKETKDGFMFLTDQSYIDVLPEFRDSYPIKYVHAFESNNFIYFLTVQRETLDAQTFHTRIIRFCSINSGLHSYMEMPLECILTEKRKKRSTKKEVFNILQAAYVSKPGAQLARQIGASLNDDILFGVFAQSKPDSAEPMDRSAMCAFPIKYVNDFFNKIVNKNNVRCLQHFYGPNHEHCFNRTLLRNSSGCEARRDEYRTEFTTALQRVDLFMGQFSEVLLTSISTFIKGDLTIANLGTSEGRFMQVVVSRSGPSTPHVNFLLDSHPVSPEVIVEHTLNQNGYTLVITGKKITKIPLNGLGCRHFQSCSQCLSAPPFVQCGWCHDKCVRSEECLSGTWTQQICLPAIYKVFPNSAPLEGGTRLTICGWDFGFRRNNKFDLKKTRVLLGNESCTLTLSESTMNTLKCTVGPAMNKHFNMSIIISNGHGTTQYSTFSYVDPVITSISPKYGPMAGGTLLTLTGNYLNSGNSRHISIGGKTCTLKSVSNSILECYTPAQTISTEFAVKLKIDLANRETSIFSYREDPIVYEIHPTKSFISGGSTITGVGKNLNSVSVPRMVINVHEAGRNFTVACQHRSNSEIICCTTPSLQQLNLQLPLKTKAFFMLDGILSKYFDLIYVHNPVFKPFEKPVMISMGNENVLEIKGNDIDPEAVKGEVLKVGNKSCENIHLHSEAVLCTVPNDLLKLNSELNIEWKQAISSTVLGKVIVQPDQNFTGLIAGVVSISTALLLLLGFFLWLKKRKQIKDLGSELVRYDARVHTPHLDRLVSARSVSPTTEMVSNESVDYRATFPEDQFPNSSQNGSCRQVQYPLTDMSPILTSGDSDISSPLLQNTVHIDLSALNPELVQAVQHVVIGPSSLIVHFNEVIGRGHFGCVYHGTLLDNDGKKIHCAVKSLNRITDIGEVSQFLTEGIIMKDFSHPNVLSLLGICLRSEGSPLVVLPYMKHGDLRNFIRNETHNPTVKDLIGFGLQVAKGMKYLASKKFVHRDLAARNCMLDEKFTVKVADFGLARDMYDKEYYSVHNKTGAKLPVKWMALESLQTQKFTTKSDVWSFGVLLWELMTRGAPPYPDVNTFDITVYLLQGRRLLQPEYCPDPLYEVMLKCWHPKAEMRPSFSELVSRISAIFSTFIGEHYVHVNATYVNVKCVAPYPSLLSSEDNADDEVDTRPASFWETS
Sequence of c-FMS kinase in THP-1 cells (P07333 20-972): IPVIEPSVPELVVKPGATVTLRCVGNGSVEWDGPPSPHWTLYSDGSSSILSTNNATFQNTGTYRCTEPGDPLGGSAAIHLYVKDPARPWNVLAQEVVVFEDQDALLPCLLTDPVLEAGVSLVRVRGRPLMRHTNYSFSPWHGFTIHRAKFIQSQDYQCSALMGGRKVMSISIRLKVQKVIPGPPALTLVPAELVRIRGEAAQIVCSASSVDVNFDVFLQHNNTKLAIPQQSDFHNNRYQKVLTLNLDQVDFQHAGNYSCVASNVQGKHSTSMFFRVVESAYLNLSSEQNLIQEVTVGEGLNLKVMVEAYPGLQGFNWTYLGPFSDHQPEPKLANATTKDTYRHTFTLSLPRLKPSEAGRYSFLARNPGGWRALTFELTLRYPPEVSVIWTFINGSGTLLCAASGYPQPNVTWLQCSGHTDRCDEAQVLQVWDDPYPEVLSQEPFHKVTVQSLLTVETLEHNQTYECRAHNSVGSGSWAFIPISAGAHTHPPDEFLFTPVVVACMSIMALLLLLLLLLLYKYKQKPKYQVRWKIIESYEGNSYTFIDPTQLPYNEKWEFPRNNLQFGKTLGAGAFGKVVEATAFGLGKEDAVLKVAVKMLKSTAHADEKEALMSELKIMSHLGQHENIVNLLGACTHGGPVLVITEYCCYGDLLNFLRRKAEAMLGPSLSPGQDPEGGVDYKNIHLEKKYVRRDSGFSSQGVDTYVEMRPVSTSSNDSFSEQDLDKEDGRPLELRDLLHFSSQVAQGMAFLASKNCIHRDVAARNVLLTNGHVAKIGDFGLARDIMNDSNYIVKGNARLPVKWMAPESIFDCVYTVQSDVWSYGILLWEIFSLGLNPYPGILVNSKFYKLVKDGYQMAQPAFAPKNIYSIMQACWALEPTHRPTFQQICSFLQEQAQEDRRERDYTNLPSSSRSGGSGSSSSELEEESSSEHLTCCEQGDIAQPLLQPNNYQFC

`Cn1cc(-c2cc(Oc3ccc(NC(=O)N4CCN(C5CCOCC5)C4=O)nc3)ccn2)cn1` [Example 1, N-(5-((2-(1-methyl-1H-pyrazol-4-yl)pyridin-4-yl)oxy)pyridin-2-yl)-2-oxo-3-(tetrahydro-2H-pyran-4-yl)imidazolidine-1-carboxamide]: the IC50 in the assay on osteoclast precursors was 10 to 100 nM; in assay [1] (setting [2]), 10 to 100 nM; against KDR kinase it was above 3300 nM; against cMET kinase, above 5000 nM.

For `Cc1nc(NC(=O)N2CCN(C3CCCC3)C2=O)ccc1Oc1ccnc(-c2cnn(C)c2)c1` [Example 29, 3-cyclopentyl-N-(6-methyl-5-((2-(1-methyl-1H-pyrazol-4-yl)pyridin-4-yl)oxy)pyridin-2-yl)-2-oxoimidazolidine-1-carboxamide], the IC50 in the assay with osteoclast precursors was below 10 nM; in assay [1] (setting [2]) it was 10 to 100 nM; against KDR kinase, above 3300 nM; on cMET kinase it was 898 nM.

Regarding `COCCN1CCN(C(=O)Nc2ccc(Oc3ccnc(-c4cnn(C)c4)c3)c(C)n2)C1=O` [Example 18, 3-(2-methoxyethyl)-N-(6-methyl-5-((2-(1-methyl-1H-pyrazol-4-yl)pyridin-4-yl)oxy)pyridin-2-yl)-2-oxoimidazolidine-1-carboxamide], the IC50 is 10 to 100 nM with osteoclast precursors, 10 to 100 nM in assay [1] (setting [2]), above 3300 nM against KDR kinase and above 5000 nM against cMET kinase. Further, the “inhibition of cFOS mRNA levels” value in the assay on c-FMS is listed as at least 70%.

As to `CCN1CCN(C(=O)Nc2ccc(Oc3ccnc(-c4cnn(C)c4)c3)c(C)n2)C1=O` [Example 42, 3-ethyl-N-(6-methyl-5-((2-(1-methyl-1H-pyrazol-4-yl)pyridin-4-yl)oxy)pyridin-2-yl)-2-oxoimidazolidine-1-carboxamide], the IC50 with osteoclast precursors is below 10 nM; in assay [1] (setting [2]) it was 10 to 100 nM; against KDR kinase, above 10000 nM; against cMET kinase it was above 5000 nM. The same compound came in with a lesion score with PC-3 M-luc cells of 2. In the assay on c-FMS, the “inhibition of cFOS mRNA levels” value is reported as at least 70%.

As to `Cc1nc(NC(=O)N2CCN(C)C2=O)ccc1Oc1ccnc(-c2cnn(C)c2)c1` [Example 41, 3-methyl-N-(6-methyl-5-((2-(1-methyl-1H-pyrazol-4-yl)pyridin-4-yl)oxy)pyridin-2-yl)-2-oxoimidazolidine-1-carboxamide], the IC50 (with osteoclast precursors; in assay [1]) was 10 to 100 nM in each case. The “inhibition of cFOS mRNA levels” value in the assay on c-FMS is on record as at least 70%.

For the compound `CCN1CCN(C(=O)Nc2ccc(Oc3ccnc(-c4ccnc(C)c4)c3)c(C)n2)C1=O` [Example 118, 3-ethyl-N-(6-methyl-5-((2′-methyl-[2,4′-bipyridin]-4-yl)oxy)pyridin-2-yl)-2-oxoimidazolidine-1-carboxamide], the IC50 (in the assay with osteoclast precursors; in assay [1] (setting [2])) was 10 to 100 nM each time. In addition, the “inhibition of cFOS mRNA levels” value in the assay with c-FMS is reported as at least 70%.

Take `Cc1cc(NC(=O)N2CCN(C)C2=O)ncc1Oc1ccnc(-c2cnn(C)c2)c1` [Example 85, 3-methyl-N-(4-methyl-5-((2-(1-methyl-1H-pyrazol-4-yl)pyridin-4-yl)oxy)pyridin-2-yl)-2-oxoimidazolidine-1-carboxamide]: the IC50 with osteoclast precursors was below 10 nM; in assay [1] (setting [2]), 10 to 100 nM.

For the compound `CN(C)C(=O)Nc1cc(Oc2ccc(NC(=O)N3CCN(C4CCOCC4)C3=O)nc2)ccn1` [Example 120, N-(5-((2-(3,3-dimethylureido)pyridin-4-yl)oxy)pyridin-2-yl)-2-oxo-3-(tetrahydro-2H-pyran-4-yl)imidazolidine-1-carboxamide], the IC50 was below 10 nM in the assay on osteoclast precursors and 10 to 100 nM in assay [1] (setting [2]).

With `CCn1cc(-c2cc(Oc3ccc(NC(=O)N4CCN(C5CCOCC5)C4=O)nc3)ccn2)cn1` [Example 4, N-(5-((2-(1-ethyl-1H-pyrazol-4-yl)pyridin-4-yl)oxy)pyridin-2-yl)-2-oxo-3-(tetrahydro-2H-pyran-4-yl)imidazolidine-1-carboxamide], the IC50 with osteoclast precursors is 10 to 100 nM; in assay [1] (setting [2]) it was below 10 nM.

Regarding `Cc1nc(NC(=O)N2CCN(CC(F)(F)F)C2=O)ccc1Oc1ccnc(-c2cnn(C)c2)c1` [Example 43, N-(6-methyl-5-((2-(1-methyl-1H-pyrazol-4-yl)pyridin-4-yl)oxy)pyridin-2-yl)-2-oxo-3-(2,2,2-trifluoroethyl)imidazolidine-1-carboxamide], the IC50 in the assay with osteoclast precursors is below 10 nM; in assay [1] (setting [2]), 10 to 100 nM.

On to `[2H]C([2H])([2H])n1cc(-c2cc(Oc3ccc(NC(=O)N4CCN(CCOC)C4=O)nc3C)ccn2)cn1` [Example 39, 3-(2-methoxyethyl)-N-(6-methyl-5-((2-(1-(trideuteromethyl)-1H-pyrazol-4-yl)pyridin-4-yl)oxy)pyridin-2-yl)-2-oxoimidazolidine-1-carboxamide], for which the IC50 (with osteoclast precursors; in assay [1] (setting [2])) was 10 to 100 nM each time.

Turning to `Cc1nc(NC(=O)N2CCN(C3COC3)C2=O)ccc1Oc1ccnc(-c2cnn(C)c2)c1` [Example 20, N-(6-methyl-5-((2-(1-methyl-1H-pyrazol-4-yl)pyridin-4-yl)oxy)pyridin-2-yl)-3-(oxetan-3-yl)-2-oxoimidazolidine-1-carboxamide], the IC50 (with osteoclast precursors; in assay [1] (setting [2])) was 10 to 100 nM throughout.

In the case of `Cc1nc(NC(=O)N2CCN(C(C)C)C2=O)ccc1Oc1ccnc(-c2cnn(C)c2)c1` [Example 35, 3-isopropyl-N-(6-methyl-5-((2-(1-methyl-1H-pyrazol-4-yl)pyridin-4-yl)oxy)pyridin-2-yl)-2-oxoimidazolidine-1-carboxamide], the IC50 (in the assay on osteoclast precursors; in assay [1] (setting [2])) was below 10 nM in each case.

Values taken from US9133183B2, “Imidazolidinones and analogs exhibiting anti-cancer and anti-proliferative activities” (Deciphera Pharmaceuticals, LLC, priority 2013, dated 2015).
